pIC50: −log10 of the molar value.
Experiments:
[1] = test system: human pancreatic cancer cell line MiaPaCa2 (ATCC CRL-1420); assay: Cell growth assay (CellTiterGlo, 72 hours); assay type: cell-based; settings: MIA PaCa-2, MiaPaCa2 cells, 72 hours, read-out: IC50 MiaPaCa
Summary of the method: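 MiaPaCa2 cells (10^3/well) seeded in supplemented DMEM overnight, then exposed in quadruplicate to compound at 100 down to 0.1 μM for 72 h at 37° C. Growth read by CellTiterGlo luminescence, medium-only background subtracted, normalised to untreated cells; IC50 = concentration reducing growth to 50%.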

MNK1 = target: T1, MNK1 (Homo sapiens, UniProt Q9BUB5); assay: MNK inhibition assay (Z-Lyte kinase assay, Ser/Thr 7 peptide); assay type: biochemical; settings: recombinant GST-MNK1, 3 hours at 31° C.
T1 construct: purchased Life Technologies or Carna Biosciences PV6023 or 02-145; host or cells: baculovirus infected insect cells
Summary of the method: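 Recombinant GST-MNK1 from baculovirus-infected insect cells, Z-Lyte Ser/Thr 7 peptide, enzyme set for ~30% phosphorylation in buffer-only wells; 3 hours at 31° C. Compounds at 50–10000 nM (potent ones down to 0.5 nM), at least duplicate. IC50 from % substrate phosphorylation versus buffer-only wells, fluorescence read-out.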

[2] = test system: HCT116 colon carcinoma xenograft; settings: nude mice; cited from earlier work
[3] = test system: B16 melanoma pulmonary metastatic lesions; settings: in vivo; cited from earlier work

T1 sequence (Q9BUB5 whole entry): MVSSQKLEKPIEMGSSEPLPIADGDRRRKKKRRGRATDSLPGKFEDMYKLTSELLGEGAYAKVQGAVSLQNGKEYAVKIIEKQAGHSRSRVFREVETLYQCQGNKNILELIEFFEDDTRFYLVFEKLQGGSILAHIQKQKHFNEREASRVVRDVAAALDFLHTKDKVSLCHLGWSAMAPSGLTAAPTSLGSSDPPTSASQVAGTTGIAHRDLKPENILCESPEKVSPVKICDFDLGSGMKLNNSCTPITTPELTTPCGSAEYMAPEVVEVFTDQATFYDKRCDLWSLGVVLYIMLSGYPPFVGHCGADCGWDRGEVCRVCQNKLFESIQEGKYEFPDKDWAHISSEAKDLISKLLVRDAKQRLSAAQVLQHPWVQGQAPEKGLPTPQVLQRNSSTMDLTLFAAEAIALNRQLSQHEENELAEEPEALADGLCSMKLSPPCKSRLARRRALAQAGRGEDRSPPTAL

`COc1cc(O[C@H]2CC[C@H](N)CC2)cc2c(-c3cc4ccccc4o3)cnc(N)c12` [Example 323, trans-6-(4-Aminocyclohexoxy)-4-(benzofuran-2-yl)-8-methoxy-isoquinolin-1-amine] showed a pIC50 [1] of 5.49 and a pIC50 (MNK1) of 6.68.
In the case of `CC(=O)C1=C(O)C=C2Oc3c(C(N)=O)c(O)cc(O)c3[C@]2(C)C1=O` [cercosporamidc], the “growth of a HCT116 colon carcinoma xenograft model” value [2] is given as “inhibiting the growth” and the “outgrowth of B16 melanoma pulmonary metastatic lesions” value [3] is given as “reduceing the outgrowth”.
